Paper PMC9127750, “Structure-based design of CDC42 effector interaction inhibitors for the treatment of cancer” (Cell reports, 2022)

Test system: WM3248 melanoma cells, 486 antibodies
Assay: Reverse phase protein arrays (RPPA);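 on RPPA ACC1.R.C: ratio of treated to vehicle (0 µM) normalized linear protein signal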;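 on RPPA AMPK.a2 pS345.R.V: ratio of treated to vehicle (0 µM) normalized linear protein signal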;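 on RPPA AMPKa pT172.R.C: ratio of treated to vehicle (0 µM) normalized linear protein signal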;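 on RPPA ASNS.R.V: ratio of treated to vehicle (0 µM) normalized linear protein signal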;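 on RPPA AceCS1.R.V: ratio of treated to vehicle (0 µM) normalized linear protein signal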;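 on RPPA Akt1.R.V: ratio of treated to vehicle (0 µM) normalized linear protein signal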;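 on RPPA Atg5.R.C: ratio of treated to vehicle (0 µM) normalized linear protein signal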;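 on RPPA Bim.R.V: ratio of treated to vehicle (0 µM) normalized linear protein signal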
Assay type: cell-based, Human
Conditions: 20 uM
Source text: Pellets were snap frozen in liquid nitrogen and shipped to MD Anderson Cancer Center core RPPA facility for RPPA analysis (Table S5). Three biological replicates for each sample were generated.
Nomenclatures on the RPPA heatmaps: name_of_antibody.species_of_antibody.status_of_antibody. V - antibody validated; C - validation of antibody in progress; Q - antibody nonspecific; E – under evaluation; antibodies raised in M - mouse, G - goat, R - rabbit, or T - rat.

CN(C)c1cccc(Nc2cc(-c3ccccc3)nc(C3CCNCC3)n2)c1 [ARN22089, N1,N1-dimethyl-N3-(6-phenyl-2-(piperidin-4-yl)pyrimidin-4-yl)benzene-1,3-diamine]
RPPA level HSP70.R.C (Average): 1.160 | RPPA level Hexokinase.I.R.C (Average): 1.048 | RPPA level Hexokinase.II.R.V (Average): 0.963 | RPPA level Hif.1αR.C (Average): 0.904 | RPPA level Histone.H3.R.V (Average): 5.173 | RPPA level Histone.H3_pS10.R.V (Average): 2.026 | RPPA level IDO.R.C (Average): 1.014 | RPPA level IGF1R_pY1135_Y1136.R.V (Average): 0.992 | RPPA level IGFBP2.R.V (Average): 0.899 | RPPA level IGFBP3.M.V (Average): 0.907 | RPPA level IGFRb.R.C (Average): 1.146 | RPPA level IL.6.R.C (Average): 1.008 | RPPA level IMP3.R.C (Average): 1.016 | RPPA level INPP4b.R.C (Average): 0.905 | RPPA level IR.b.R.C (Average): 1.149 | RPPA level IRF.1.R.V (Average): 0.954 | RPPA level IRF.3.R.V (Average): 0.948 | RPPA level IRS1.R.V (Average): 1.105 | RPPA level IRS2.R.C (Average): 1.211 | RPPA level JAB1.M.C (Average): 0.972 | RPPA level JNK2.R.V (Average): 0.925 | RPPA level Jagged1.R.V (Average): 1.085 | RPPA level KAP1.R.V (Average): 1.034 | RPPA level KEAP1.R.V (Average): 0.960 | RPPA level LAD1.R.V (Average): 1.019 | RPPA level LC3A.B.R.C (Average): 1.119 | RPPA level LCN2.R.V (Average): 1.461 | RPPA level LDHA.R.C (Average): 0.979 | RPPA level Lck.R.V (Average): 1.187 | RPPA level Lyn.R.V (Average): 1.058 | RPPA level MACC1.R.V (Average): 1.008 | RPPA level MAPK_pT202_Y204.R.C (Average): 0.677 | RPPA level MCT4.R.V (Average): 0.896 | RPPA level MDM2_pS166.R.V (Average): 1.230 | RPPA level MEK1.R.V (Average): 2.341 | RPPA level MEK2.R.V (Average): 1.026 | RPPA level MERIT40.R.C (Average): 0.895 | RPPA level MERIT40_pS29.R.V (Average): 0.991 | RPPA level METTL3.R.V (Average): 1.155 | RPPA level MIF.R.C (Average): 0.950 | RPPA level MIG6.R.V (Average): 0.989 | RPPA level MITF.R.V (Average): 1.031 | RPPA level MLH1.M.V (Average): 0.887 | RPPA level MLKL.R.V (Average): 0.867 | RPPA level MMP2.R.V (Average): 0.982 | RPPA level MMP14.R.V (Average): 1.321 | RPPA level MR1.M.C (Average): 1.026 | RPPA level MRAP.R.C (Average): 1.126 | RPPA level MSH2.R.C (Average): 0.913 | RPPA level MSH6.R.C (Average): 1.164 | RPPA level MSI2.R.C (Average): 1.099 | RPPA level MTCO1.M.V (Average): 1.031 | RPPA level MTSS1.M.C (Average): 0.981 | RPPA level Mcl.1.R.V (Average): 0.838 | RPPA level Melanoma.gp100.R.C (Average): 1.007 | RPPA level Merlin.R.C (Average): 1.156 | RPPA level Midkine.R.V (Average): 0.970 | RPPA level Mitofusin.1.R.V (Average): 0.952 | RPPA level Mitofusin.2.R.V (Average): 0.892 | RPPA level Mnk1.R.V (Average): 0.957 | RPPA level mTOR.R.V (Average): 0.941 | RPPA level mTOR_pS2448.R.C (Average): 0.914 | c.Jun_pS73.R.V RPPA level (Average): 0.970 | c.Kit.R.V RPPA level (Average): 1.141 | c.Met_pY1234_Y1235.R.V RPPA level (Average): 1.064 | cGAS.R.V RPPA level (Average): 1.063 | cdc2_pY15.R.C RPPA level (Average): 1.101 | cdc25C.R.V RPPA level (Average): 0.883 | RPPA ACC1.R.C (D.1): 0.904 | RPPA ACC_pS79.R.V (D.1): 1.061 | RPPA ACLY_pS455.R.V (D.1): 0.944 | RPPA ACSL1.R.V (D.1): 1.054 | RPPA ACVRL1.R.C (D.1): 1.049 | RPPA ADAR1.M.V (D.1): 1.103 | RPPA ALKBH5.R.V (D.1): 1.309 | RPPA AMPK.a2_pS345.R.V (D.1): 0.933 | RPPA AMPKa.R.C (D.1): 1.010 | RPPA AMPKa_pT172.R.C (D.1): 1.099 | RPPA ARID1A.R.C (D.1): 2.023 | RPPA ASNS.R.V (D.1): 0.909 | RPPA ATM.R.V (D.1): 0.752 | RPPA ATP5A.M.C (D.1): 1.056 | RPPA ATP5H.R.V (D.1): 1.455 | RPPA ATR.R.V (D.1): 1.004 | RPPA ATRX.R.C (D.1): 0.831 | RPPA AceCS1.R.V (D.1): 1.063 | RPPA Akt1.R.V (D.1): 0.712 | RPPA Akt1_pS473.R.V (D.1): 0.750 | RPPA Akt2.R.V (D.1): 0.746 | RPPA Akt2_pS474.R.C (D.1): 0.847 | RPPA Akt.R.V (D.1): 0.884 | RPPA Akt_pS473.R.V (D.1): 0.449 | RPPA Ambra1_pS52.R.C (D.1): 1.082 | RPPA Annexin.I.M.V (D.1): 0.994 | RPPA Annexin.VII.M.V (D.1): 1.057 | RPPA Atg4B.R.C (D.1): 0.789 | RPPA Atg5.R.C (D.1): 1.025 | RPPA Atg7.R.V (D.1): 0.657 | RPPA Aurora.A.R.C (D.1): 1.945 | RPPA Aurora.ABC_pT288_pT232_pT198.R.C (D.1): 0.842 | RPPA Aurora.B.R.V (D.1): 1.775 | RPPA Axl.R.V (D.1): 0.594 | RPPA B7.H3.R.C (D.1): 0.996 | RPPA B7.H4.R.C (D.1): 0.838 | RPPA B.Raf.R.C (D.1): 0.786 | RPPA B.Raf_pS445.R.V (D.1): 0.752 | RPPA BAP1.M.V (D.1): 1.051 | RPPA BCL2A1.R.V (D.1): 0.907 | RPPA BMK1.Erk5_pT218_Y220.R.V (D.1): 1.016 | RPPA BRCA1.M.C (D.1): 1.165 | RPPA BRD4.R.V (D.1): 1.680 | RPPA Bad_pS112.R.V (D.1): 0.993 | RPPA Bak.R.C (D.1): 1.006 | RPPA Bcl2.R.C (D.1): 1.280 | RPPA Bcl.xL.R.V (D.1): 0.996 | RPPA Beclin.R.C (D.1): 1.111 | RPPA BiP.GRP78.M.C (D.1): 1.051 | RPPA Bid.R.C (D.1): 1.015 | RPPA Bim.R.V (D.1): 1.098 | RPPA X4E.BP1.R.V (D.1): 0.866 | RPPA X4E.BP1_pS65.R.V (D.1): 0.834 | RPPA X4E.BP1_pT37_T46.R.V (D.1): 0.918 | RPPA X14.3.3.zeta.R.V (D.1): 1.017 | RPPA X14.3.3βR.V (D.1): 1.192 | RPPA X53BP1.R.V (D.1): 1.055 | RPPA b.Actin.R.C (D.1): 1.239 | RPPA b.Catenin.R.V (D.1): 1.006 | RPPA b.Catenin_pT41_S45.R.V (D.1): 1.014 | RPPA c.Abl.R.V (D.1): 0.991 | RPPA c.Abl_pY412.R.C (D.1): 0.922 | RPPA c.IAP2.R.C (D.1): 1.019 | RPPA PREX1.R.V Average (average of 3): 0.950 | RPPA PTEN.R.V Average (average of 3): 1.082 | RPPA PTPN12.R.V Average (average of 3): 1.211 | RPPA PYGB.R.V Average (average of 3): 1.080 | RPPA PYGM.M.C Average (average of 3): 0.983 | RPPA Puma.R.C Average (average of 3): 1.011 | RPPA RBM15.R.V Average (average of 3): 0.995 | RPPA RIP3.R.C Average (average of 3): 0.996 | RPPA RIP.R.C Average (average of 3): 1.022 | RPPA RPA32.R.V Average (average of 3): 1.078 | RPPA RPA32_pS4_S8.R.C Average (average of 3): 1.531 | RPPA RRM1.R.C Average (average of 3): 0.946 | RPPA RRM2.R.C Average (average of 3): 0.922 | RPPA RSK1.R.V Average (average of 3): 0.941 | RPPA RSK.R.C Average (average of 3): 0.973 | RPPA Rab11.R.C Average (average of 3): 1.059 | RPPA Rad23A.R.C Average (average of 3): 0.946 | RPPA Rad50.R.V Average (average of 3): 1.053 | RPPA Rad51.R.C Average (average of 3): 0.940 | RPPA Raptor.R.V Average (average of 3): 0.967 | RPPA Rb.M.Q Average (average of 3): 0.977 | RPPA Rb_pS807_S811.R.V Average (average of 3): 0.907 | RPPA Rheb.M.C Average (average of 3): 1.147 | RPPA Rictor.R.C Average (average of 3): 1.017 | RPPA Rictor_pT1135.R.V Average (average of 3): 1.076 | RPPA S6.M.V Average (average of 3): 0.982 | RPPA S6_pS235_S236.R.V Average (average of 3): 0.339 | RPPA S6_pS240_S244.R.V Average (average of 3): 0.423 | RPPA SCD.M.V Average (average of 3): 0.961 | RPPA SDHA.R.V Average (average of 3): 1.098 | RPPA SF2.R.V Average (average of 3): 1.008 | RPPA SFRP1.R.V Average (average of 3): 0.986
